Like-named read-outs stand apart in the source and are kept apart here.
What was measured:
[1] = test system: Sclerotinia sclerotiorum; experiment: white mold on carrot sections dip test; conditions: 100 ppm dip, 20° C., six days
Protocol: Surface-sterilized carrot sections were dipped two minutes in a 100 ppm solution of the compounds of this invention. Additional sections were dipped in a check solution which contained 500 ppm Alkanol® XC (sodium alkyl naphthalene sulfonate). After inoculation by placing a mycelial plug of Sclerotinia sclerotiorum on each carrot section, the test was held at 20° C. for six days.
The untreated carrot sections were completely invaded with the mycelial growth of white mold fungus, but the treated sections had little or no growth by this disease causing organism.

[2] = test system: Venturia inaequalis; experiment: apple scab preventive test; assay type: in vivo; conditions: 10-12 days
Protocol: (§1) Compounds of this invention are dissolved in acetone in an amount equal to 6% of the final volume and then suspended at a concentration of 20 ppm in purified water containing 25 ppm of the surfactant Alkanol® XC (sodium alkyl naphthalene sulfonate). This suspension is sprayed to the point of run-off on apple seedlings. The following day, the plants are inoculated with a spore suspension of the fungus Venturia inaequalis and incubated in a growth room for 10-12 days. Disease ratings are then made. […] Phytotoxicity in the form of foliar burn was observed on some of the plants in association with disease control.

[3] = test system: Phytophthora infestans; experiment: whole plant or invertebrate; assay type: in vivo; conditions: in Solanum lycopersicum, 96 h, read-out: % control tomato late blight in a residual wash-off test
[4] = test system: Erysiphe cichoracearum; experiment: cucumber powdery mildew photostability test; assay type: in vivo; conditions: Golovinomyces cichoracearum, 168 h, xenon arc 3500 foot candles 16 hours, 7 days
Protocol: (§2) Compounds of this invention are dissolved in acetone in an amount equal to 6% of the final volume and then suspended at a concentration of 20 ppm in purified water containing 25 ppm of the surfactant Alkanol® XC (sodium alkyl naphthalene sulfonate). This suspension is sprayed to the point of run-off in cucumber seedlings. When the foliage is dry, the plants are exposed to 3500 foot candles of light from a xenon arc source for a period of 16 hours. This light source approximates the spectrum of natural sunlight, and is used to assess photostability of the compounds of this invention on plant foliage. The following day, the plants are inoculated with a spore suspension of the fungus Erysiphe cichoracearum and incubated in a growth room for 7 days. Disease ratings are then made.

[5] = test system: Puccinia graminis var. tritici; experiment: whole plant or invertebrate; assay type: in vivo; conditions: 192 h, read-out: % control wheat rust in preventive test
[6] = test system: Puccinia graminis var. tritici; experiment: whole plant or invertebrate; assay type: in vivo; conditions: 192 h, read-out: % control wheat rust in a photostability test
[7] = test system: Rhizopus; experiment: Rhizopus-corn meal mixture overspray test; conditions: 168 h, read-out: % control Rhizopus
Protocol: Compounds of this invention were dissolved in acetone in an amount equal to 6% of final volume and then suspended at a concentration of 100 ppm in purified water containing 500 ppm of the surfactant Alkanol® XC (sodium alkyl naphthalene sulfonate). This solution was oversprayed on a Rhizopus-corn meal mixture in 6 cm aluminum cups. The sprayed plates were placed in a closed plastic bag, stored at 20° C. for 7 days, and then rated.
The untreated cups were completely covered with Rhizopus mycelial growth, but the treated cups were mostly free of growth by this disease-causing organism.

[8] = test system: Phytophthora infestans; experiment: whole plant or invertebrate; assay type: in vivo; conditions: in Solanum lycopersicum, 96 h, read-out: % control tomato late blight in a photostability test
[9] = test system: Erysiphe cichoracearum; experiment: cucumber powdery mildew preventive test; assay type: in vivo; conditions: Golovinomyces cichoracearum, 168 h, 7 days
Protocol: as §1, with “cucumber” for “apple”, “Erysiphe cichoracearum” for “Venturia inaequalis”, “7” for “10-12”, “burn or growth reduction” for “burn”

[10] = test system: Venturia inaequalis; experiment: apple scab residual wash-off test; assay type: in vivo; conditions: 1/2 inch simulated rainfall, 10-12 days
Protocol: as §1, with “day, 1/2 inch of simulated rainfall is applied to the foliage of the plants. When the foliage is dry,” for “day,”, “on” for “on some of”

[11] = test system: Erisyphe cichoracearum; experiment: cucumber powdery mildew curative test; assay type: in vivo; conditions: Cucumis sativus, 144 h, sprayed day after inoculation, additional 6 days
Text: Cucumber plants are inoculated with a spore suspension of the fungus Erisyphe cichoracearum and in a growth room overnight. The following day, the plants are sprayed to the point of run-off with a suspension prepared by dissolving compounds of this invention in acetone in an amount equal to 6% of the final volume and then suspended at a concentration of 20 ppm in purified water containing 25 ppm of the surfactant Alkanol® XC (sodium alkyl naphthalene sulfonate). Plants are returned to the growth room for an additional 6 days when disease ratings are then made. […] Phytotoxicity in the form of foliar burn or growth reduction was observed on some of the plants in association with disease control.

[12] = test system: organo-phosphorous resistant two-spotted spider mites; experiment: organo-phosphorous resistant two-spotted spider mites on bean plants, spray, mortality after two days; conditions: Tetranychus urticae, 48 h, read-out: % Mortality (2 days)
[13] = test system: Erysiphe cichoracearum; experiment: cucumber powdery mildew residual wash-off test; assay type: in vivo; conditions: Golovinomyces cichoracearum, 168 h, 1/2 inch simulated rainfall, 7 days
Protocol: Compounds of this invention are dissolved in acetone in an amount equal to 6% of the final volume and then suspended at a concentration of 20 ppm in purified water containing 25 ppm of the surfactant Alkanol® XC (sodium alkyl naphthalene sulfonate). This suspension is sprayed to the point of run-off on cucumber seedlings. The following day, 1/2 inch of simulated rainfall is applied to the foliage of the plants. When the foliage is dry, the plants are inoculated with a spore suspension on the fungus Erysiphe cichoracearum and incubated in a growth room for 7 days. Disease ratings are then made.

[14] = test system: Venturia inaequalis; experiment: apple scab photostability test; assay type: in vivo; conditions: xenon arc 3500 foot candles 16 hours, 10-12 days
Protocol: as §2, with “on apple” for “in cucumber”, “Venturia inaequalis” for “Erysiphe cichoracearum”, “10-12” for “7”, “made. […] Phytotoxicity in the form of foliar burn was observed on some of the plants in association with disease control.” for “made.”

[15] = test system: Puccinia graminis var. tritici; experiment: whole plant or invertebrate; assay type: in vivo; conditions: 192 h, read-out: % control wheat rust in residual wash-off test
[16] = test system: two-spotted mites; experiment: two-spotted mites on bean plants, spray, mortality after two days; assay type: in vivo; conditions: Tetranychus urticae, 48 h, read-out: % Mortality (2 days)
Protocol: Mortality was evaluated two days after spraying.
Mortality after two days is set forth below.

[17] = test system: red-legged grasshoppers (Melanoplus femurrubrum); experiment: red-legged grasshoppers spray test; assay type: in vivo; conditions: 10 ppm in acetone, 48 hours
Protocol: Five red-legged grasshoppers (Melanoplus femurrubrum) were confined in each of several cylindrical stainless steel cages (7.5 cm D×4 cm high) with wire screens at the end. These were sprayed with 10 ppm concentration of the indicated compounds in acetone solution. Percent mortality after 48 hours is recorded below.

[18] = test system: adult houseflies; experiment: adult houseflies spray test; assay type: in vivo, housefly; conditions: Musca domestica; 1% acetone solutions, 24 hours
Text: Twenty adult houseflies were confined in each of several cylindrical stainless steel cages (7.5 cm D×4 cm high) with wire screens of the ends. These were sprayed with 1% acetone solutions of the indicated compounds.

[19] = test system: brown dog ticks (Rhipicephalus sanguineus); experiment: brown dog ticks spray test; assay type: in vivo; conditions: 48 h, 12.5 ppm in acetone, forty eight hours
Protocol: Four-ounce wide mouth jars, each containing 10 brown dog ticks (Rhipicephalus sanguineus), were sprayed with 12.5 ppm concentration of the indicated compounds in acetone solution. The ticks were confined with caps which were also sprayed. Forty eight hours later, percent mortality was determined.

[20] = test system: Eggs of the beet armyworm (Spodoptera exigua); experiment: beet armyworm egg (ovicidal) test, % eggs failing to hatch; assay type: in vivo; conditions: 72 h, 200 ppm in acetone, three days, read-out: % Control (% eggs failing to hatch)
Protocol: Eggs of the beet armyworm (Spodoptera exigua), laid on cellophane discs each containing 50-75 eggs, were placed in petri dishes and lightly sprayed with 1% concentrations of the indicated compounds in acetone solution. Three days later, percent control (% eggs failing to hatch) was determined.
Eggs of the beet armyworm (Spodoptera exigua), laid on cellophane discs each containing 50-75 eggs, were placed in petri dishes and lightly sprayed with 200 ppm concentration of the indicated compounds in acetone solution. Three days later, percent control (% eggs failing to hatch) was determined.

[21] = test system: adult cotton boll weevils (Anthonomus grandis); experiment: adult cotton boll weevils spray test; assay type: in vivo; conditions: 1% acetone solution, 24 hours
Protocol: Five adult cotton boll weevils (Anthonomus grandis) were confined in a 4-oz. wide mouth jar. These were sprayed with a 1% acetone solution of the indicated compounds. Percent mortality after 24 hours is set forth below.

| Compound | % control White Mold [1] [%] | pest or weed control at 20 ppm [2] [%] | pest or weed control at 20 ppm [3] [%] | pest or weed control at 20 ppm [4] [%] | pest or weed control at 20 ppm [5] [%] | pest or weed control at 20 ppm [6] [%] | pest or weed control at 20 ppm [8] [%] | pest or weed control at 20 ppm [9] [%] | pest or weed control at 20 ppm [10] [%] | pest or weed control at 20 ppm [11] [%] | pest or weed control at 20 ppm [13] [%] | pest or weed control at 20 ppm [14] [%] | pest or weed control at 20 ppm [15] [%] | other results |
| --- | --- | --- | --- | --- | --- | --- | --- | --- | --- | --- | --- | --- | --- | --- |
| Cc1ccc(S(=O)(=O)N(SN(c2cc(C(F)(F)F)ccc2Cl)c2c([N+](=O)[O-])cc([N+](=O)[O-])cc2C(F)(F)F)C(C)C)cc1 | 100 | 100 | 100 | 40 | 100 | 80 | 90 | 100 | 100 | 90 | 99 | 0 | 97 | inhibition of growth at 100 ppm [7]: 100%; mortality at 0.0005 % [12]: 83%; mortality at 0.001 % [12]: 99%; mortality at 0.002 % [12]: 99%; mortality at 0.00025 % ([16]; spray concentration .00025%): 100%; mortality at 0.0005 % ([16]; spray concentration .0005%): 100%; mortality at 0.001 % ([16]; spray concentration .001%): 100% |
| CCCCN(SN(c1cc(C(F)(F)F)ccc1Cl)c1c([N+](=O)[O-])cc([N+](=O)[O-])cc1C(F)(F)F)S(=O)(=O)c1ccccc1 | 86 | 100 | 100 | 0 | 100 | 90 | 90 | 100 | 100 | 50 | 98 | 0 | 97 | mortality at 10 ppm [17]: 100%; mortality at 1 % [18]: 100%; mortality at 12.5 ppm [19]: 100%; mortality at 200 ppm [20]: 100%; mortality at 1 % [21]: 100% |

From patent US4309425A (priority 1980, dated 1982)
